Results published in patent publication US9114119B2, “Use of serine palmitoyl transferase inhibitors for preventing and delaying inherited retinal degenerations and compositions thereof” (Universita' degli Studi di Milano, priority 2009, dated 2015).

Tests used:
[1] = tested on: endogenous ceramide in the retina of rd10 mutant mice; assay: Retinal endogenous ceramide levels (diacylglycerol kinase test) after single intravitreal injection, rd10 mice; format: in vivo, mouse; conditions: single intravitreal injection 500 nanoliters 188 mM at P19, retinas isolated at P21
Protocol: (§1) The levels of the sphingolipid endogenous ceramide were tested after isolation of the retina from anaesthetised rd10 mutant and wild-type (wt) mice of various age groups. The isolated retinas were treated for lipid extraction, and the total endogenous ceramide/inorganic phosphate ratio was determined with the diacylglycerol kinase test.
(§2) Single intravitreal injections of 500 nanoliters of myriocin (188 mM) were administered to the right eye of rd10 and wt mice aged P19. The vehicle alone (DMSO) was injected into the left eye of the same animals. The left and right retinas were isolated at P21, and treated separately for the biochemical ceramide test as explained above.

[2] = tested on: endogenous ceramide in the retina of wt mice; assay: Retinal endogenous ceramide levels (diacylglycerol kinase test) after single intravitreal injection, wt mice; format: in vivo, mouse; conditions: single intravitreal injection 500 nanoliters 188 mM at P19, retinas isolated at P21
Protocol: as §1, §2

[3] = tested on: pyknotic photoreceptors of rd10 mice; assay: Pyknotic photoreceptor count after intravitreal injection; format: in vivo, mouse
Protocol: as §2
The animals injected at P19 were collected at P21, and their eyes were enucleated and fixed. The left and right retinas were isolated, stained with fluorescent DNA-binding molecules, and mounted on slides. The external nuclear layer which contains the photoreceptor cores was sampled under the confocal microscope at regular intervals along the four retinal meridians. The images were exported to a computerised workstation, and the pyknotic photoreceptors were counted in each scanned field. The total number of pyknotic photoreceptors was calculated for each pair of treated and control retinas.

[4] = tested on: retinal morphology of rd10, wt and Thy1-GFP mice; conditions: mouse, in vivo
rd10 and wt mice = assay: Toxicity studies of intraocular injections; format: in vivo, mouse
Source text: It should be noted that myriocin has only rarely been used in vivo to date, and never injected intraocularly. The dose was chosen on the basis of the available literature on cultured cells, calculating a dilution of ⅞ times, due to the vitreous humour. A time window was selected for intraocular administration which preceded the peak death of the apoptotic photoreceptors, for the crucial reason of preventing the majority of photoreceptors from entering the apoptotic cycle.

[5] = tested on: photoreceptors of rd10 mice; conditions: mouse, in vivo
Source text: The functional recovery of the photoreceptors was studied by recording a flash electroretinogram (ERG), a technique widely used to test the retinal physiology of human patients, especially those suffering from RP.

[6] = tested on: photoreceptors of rd10 mice; assay: Rows of photoreceptor nuclei in the outer nuclear layer (ONL) after nanosphere eyedrops; format: in vivo; conditions: rd10 mice aged P24, MYR-SLN treated vs control mouse (FIG. 1a)
Source text: Following ERG recordings, animals were enucleated, their eyes fixed and sectioned and retinal sections stained with fluorescent nuclear dyes to evaluate the thickness of the outer nuclear layer (ONL) and the overall retinal morphology.
A quantitative analysis of the average number of rows of nuclei in the ONL of MYR-SLN and U-SLN (Unloaded-Solid Lipid Nanospheres) treated mice is given in FIG. 1b.

CCCCCCC(=O)CCCCCC/C=C/C[C@@H](O)[C@H](O)[C@@](N)(CO)C(=O)O [myriocin]
retinal ceramide levels vs control (DMSO) eyes [1]: Significantly lower ceramide levels | retinal ceramide levels [2]: did not significantly reduce | reduction of photoreceptor death rate (pyknotic photoreceptor count) ([3]; rd10 mice injected at P19, collected at P21, vs DMSO eye, n=17): approx. 50% | number of pyknotic (dying) photoreceptors ([3]; rd10 mutant mice, intravitreal injection): marked reduction | morphology of ganglion cells and retinal stratification [4]: excellent maintenance of the morphology of the ganglion cell and structure | retinal morphology [4]: normal retinal morphologies | adverse effects of intraocular injections (rd10 and wt mice; rd10 or wt mice): do not cause adverse effects | inflammatory response symptoms or increased ocular reactivity (rd10 and wt mice; treated animals, intraocular injection): no general or local inflammatory response symptoms | recovery of ERG response [5]: no recovery of ERG response/reaction | number of preserved nuclear rows in the ONL [6]: significantly higher
